The source of these data is publication PMC7312786 (Biochemistry, 2018).

This experiment has as its target T1, Dpo1 (Saccharolobus solfataricus, UniProt P26811).
T1 sequence (P26811 1-882): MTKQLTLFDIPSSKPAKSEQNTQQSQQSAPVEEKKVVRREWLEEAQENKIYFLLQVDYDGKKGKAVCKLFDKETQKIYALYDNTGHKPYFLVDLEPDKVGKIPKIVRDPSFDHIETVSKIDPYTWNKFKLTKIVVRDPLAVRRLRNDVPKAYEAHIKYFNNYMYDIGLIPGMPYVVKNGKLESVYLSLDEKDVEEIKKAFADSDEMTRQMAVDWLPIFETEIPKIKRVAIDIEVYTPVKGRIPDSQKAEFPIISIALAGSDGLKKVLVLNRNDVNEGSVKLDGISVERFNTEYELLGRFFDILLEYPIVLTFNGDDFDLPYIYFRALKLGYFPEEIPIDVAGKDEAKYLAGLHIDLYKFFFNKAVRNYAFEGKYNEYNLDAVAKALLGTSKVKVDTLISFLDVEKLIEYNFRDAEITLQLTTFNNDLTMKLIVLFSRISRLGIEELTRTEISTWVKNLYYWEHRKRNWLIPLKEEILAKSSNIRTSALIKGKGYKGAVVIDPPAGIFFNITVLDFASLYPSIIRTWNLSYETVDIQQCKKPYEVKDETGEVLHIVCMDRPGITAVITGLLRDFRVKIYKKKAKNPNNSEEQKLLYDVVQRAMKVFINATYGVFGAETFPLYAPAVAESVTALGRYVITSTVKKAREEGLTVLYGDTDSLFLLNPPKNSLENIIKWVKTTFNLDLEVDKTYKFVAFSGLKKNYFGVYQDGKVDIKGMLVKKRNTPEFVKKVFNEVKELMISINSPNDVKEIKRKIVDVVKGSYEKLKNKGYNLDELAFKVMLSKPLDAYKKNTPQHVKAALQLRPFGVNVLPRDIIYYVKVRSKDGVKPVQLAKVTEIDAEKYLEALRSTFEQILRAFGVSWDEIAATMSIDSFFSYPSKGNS
Briefly: Fluorescence-based pol activity assay, Dpo1. The settings on record: 20 μM PNR-7-02. The experiment is classed as biochemical, Sulfolobus solfataricus.

As to `O=C1NC(=S)NC(=O)C1=Cc1cn(Cc2ccc3ccccc3c2)c2ccc(Cl)cc12` [PNR-7-02, 5-((5-chloro-1-(naphthalen-2-ylmethyl)-1H-indol-3-yl)methylene)-2-thioxodihydropyrimidine-4,6-(1H,5H)-dione], the “Effect on catalysis by Dpo1” value is listed as “not affected at all”. Besides, the “Pol activity relative to DMSO control, Dpo1” value (mean (±SD)) is given as 118 (±15) %.
